In article PMC5601486, “Identification of 4-phenylquinolin-2(1H)-one as a specific allosteric inhibitor of Akt” (Scientific Reports, 2017):

Assays:
FGR = experiment: KINOMEscan; conditions: 50000 nM
Procedure: KINOMEscan™ selectivity screen
(§1) The assay was perfor med at DiscoveRx Corporation according the methods published previously5. Briefly, Kinase-tagged T7 phage strains were grown in parallel in an E. coli host derived from the BL21 strain. E. coli were grown to log-phase and infected with T7 phage from a frozen stock and incubated with shaking at 32°C until lysis (90-150 minutes). The kinases were produced in HEK-293 cells and subsequently tagged with DNA for qPCR detection. Streptavidin-coated magnetic beads were treated with biotinylated small molecule ligands to generate affinity resins for kinase
(§2) inhibitor or DMSO control was performed in polypropylene 384-well plates for 1 hr at room temperature. After wash with PBS buffer containing 0.05% Tween 20, the beads were incubated in elution buffer (PBS containing 0.05 % Tween 20 and 0.5 μM non-biotinylated affinity ligand) for 30 minutes at room temperature. The kinase concentration in the eluates was measured by qPCR.

[1] = test system: ABL1(F317I)-nonphosphorylated; experiment: KINOMEscan; conditions: 50000 nM
Procedure: KINOMEscan™ selectivity screen
as §1, §2

ERK4 = experiment: KINOMEscan; conditions: 50000 nM
Procedure: KINOMEscan™ selectivity screen
as §1, §2

TGFBR2 = experiment: KINOMEscan; conditions: 50000 nM
Procedure: KINOMEscan™ selectivity screen
as §1, §2

ZAK = experiment: KINOMEscan; conditions: 50000 nM
Procedure: KINOMEscan™ selectivity screen
(§3) Briefly, Kinase-tagged T7 phage strains were grown in parallel in an E. coli host derived from the BL21 strain. E. coli were grown to log-phase and infected with T7 phage from a frozen stock and incubated with shaking at 32°C until lysis (90-150 minutes). The kinases were produced in HEK-293 cells and subsequently tagged with DNA for qPCR detection. Streptavidin-coated magnetic beads were treated with biotinylated small molecule ligands to generate affinity resins for kinase
as §2

MST1 = experiment: KINOMEscan; conditions: 50000 nM
Procedure: KINOMEscan™ selectivity screen
as §1, §2

ABL2 = experiment: KINOMEscan; conditions: 50000 nM
Procedure: KINOMEscan™ selectivity screen
as §1, §2

BRSK1 = experiment: KINOMEscan; conditions: 50000 nM
Procedure: KINOMEscan™ selectivity screen
as §1, §2

PRKCQ = experiment: KINOMEscan; conditions: 50000 nM
Procedure: KINOMEscan™ selectivity screen
as §1, §2

PAK6 = experiment: KINOMEscan; conditions: 50000 nM
Procedure: KINOMEscan™ selectivity screen
as §3, §2

EPHB6 = experiment: KINOMEscan; conditions: 50000 nM
Procedure: KINOMEscan™ selectivity screen
as §1, §2

S6K1 = experiment: KINOMEscan; conditions: 50000 nM
Procedure: KINOMEscan™ selectivity screen
as §1, §2

DCAMKL2 = experiment: KINOMEscan; conditions: 50000 nM
Procedure: KINOMEscan™ selectivity screen
as §1, §2

WNK2 = experiment: KINOMEscan; conditions: 50000 nM
Procedure: KINOMEscan™ selectivity screen
(§4) The assay was perfor med at DiscoveRx Corporation according the methods published previously5. […] The kinases were produced in HEK-293 cells and subsequently tagged with DNA for qPCR detection. Streptavidin-coated magnetic beads were treated with biotinylated small molecule ligands to generate affinity resins for kinase
as §2

IRAK4 = experiment: KINOMEscan; conditions: 50000 nM
Procedure: KINOMEscan™ selectivity screen
as §3, §2

BRAF = experiment: KINOMEscan; conditions: 50000 nM
Procedure: KINOMEscan™ selectivity screen
as §1, §2

MRCKA = experiment: KINOMEscan; conditions: 50000 nM
Procedure: KINOMEscan™ selectivity screen
as §1, §2

PIK3CD = experiment: KINOMEscan; conditions: 50000 nM
Procedure: KINOMEscan™ selectivity screen
as §1, §2

PHKG1 = experiment: KINOMEscan; conditions: 50000 nM
Procedure: KINOMEscan™ selectivity screen
as §3, §2

[2] = test system: RSK4(Kin.Dom.2-C-terminal); experiment: KINOMEscan; conditions: 50000 nM
Procedure: KINOMEscan™ selectivity screen
as §1, §2

[3] = test system: RSK3(Kin.Dom.2-C-terminal); experiment: KINOMEscan; conditions: 50000 nM
Procedure: KINOMEscan™ selectivity screen
as §1, §2

SGK = experiment: KINOMEscan; conditions: 50000 nM
Procedure: KINOMEscan™ selectivity screen
as §1, §2

FLT3(R834Q) = experiment: KINOMEscan; conditions: 50000 nM
Procedure: KINOMEscan™ selectivity screen
as §4, §2

BMX = experiment: KINOMEscan; conditions: 50000 nM
Procedure: KINOMEscan™ selectivity screen
as §3, §2

CDK4-cyclinD3 = experiment: KINOMEscan; conditions: 50000 nM
Procedure: KINOMEscan™ selectivity screen
as §3, §2

EPHA2 = experiment: KINOMEscan; conditions: 50000 nM
Procedure: KINOMEscan™ selectivity screen
as §3, §2

KIT = experiment: KINOMEscan; conditions: 50000 nM
Procedure: KINOMEscan™ selectivity screen
as §3, §2

PRKD2 = experiment: KINOMEscan; conditions: 50000 nM
Procedure: KINOMEscan™ selectivity screen
as §1, §2

RIOK1 = experiment: KINOMEscan; conditions: 50000 nM
Procedure: KINOMEscan™ selectivity screen
as §1, §2

GAK = experiment: KINOMEscan; conditions: 50000 nM
Procedure: KINOMEscan™ selectivity screen
as §4, §2

MYO3A = experiment: KINOMEscan; conditions: 50000 nM
Procedure: KINOMEscan™ selectivity screen
as §1, §2

DMPK2 = experiment: KINOMEscan; conditions: 50000 nM
Procedure: KINOMEscan™ selectivity screen
as §1, §2

[4] = test system: ABL1(F317L)-nonphosphorylated; experiment: KINOMEscan; conditions: 50000 nM
Procedure: KINOMEscan™ selectivity screen
as §1, §2

ERK1/2 = experiment: Western blot of ERK1/2 phosphorylation; format: cell-based, Mouse; conditions: Neuro 2A cells
Procedure: Neuro 2A cells were seeded in 12-well plates in DMEM containing 5% FBS for 24 hr.
After overnight serum starvation (in 0% FBS DMEM), cells were incubated for 30 min at 37 °C with G7 or LY294002 or Torin 1 (Sigma Aldrich) at various concentrations, or DMSO control. IGF-1 was added to each well at a final concentration of 100 ng/mL. After 30-min incubation cells were washed with cold PBS and lysed with 50 µL lysis buffer containing 1% Triton X-100 and protease/phosphatase inhibitors (Cell Signaling Technology) or RIPA buffer (Santa Cruz Biotech). Samples were electrophoresed in 4–12% Bis-Tris gels (Life Technologies) at 150 V using MOPS SDS running buffer. Proteins were transferred electrophoretically to a PVDF or nitrocellulose membrane. For detection of cleaved […]
caspase 3 a Trans-Blot Turbo Transfer System (Bio-Rad, 25 V for 25 min) with PVDF membrane were used. […]
anti- GAPDH (14C10) antibody (#2118) (all antibodies were from Cell Signaling Technology unless indicated, 1:1000 dilution was used) at 4°C overnight, washed three times with TBS-T, then incubated with peroxidase-conjugated secondary antibody (Sigma-Aldrich) for 1 hr at room temperature. […] Band intensity was quantitated using Kodak 1D imaging analysis software. […]

CLK1 = experiment: KINOMEscan; conditions: 50000 nM
Procedure: KINOMEscan™ selectivity screen
as §3, §2

ERK5 = experiment: KINOMEscan; conditions: 50000 nM
Procedure: KINOMEscan™ selectivity screen
as §3, §2

ADCK3 = experiment: KINOMEscan; conditions: 50000 nM
Procedure: KINOMEscan™ selectivity screen
as §1, §2

CSNK1A1 = experiment: KINOMEscan; conditions: 50000 nM
Procedure: KINOMEscan™ selectivity screen
as §1, §2

MINK = experiment: KINOMEscan; conditions: 50000 nM
Procedure: KINOMEscan™ selectivity screen
as §1, §2

With `Oc1cc(-c2ccccc2)c2ccccc2n1` [G7, 4-phenylquinolin-2(1H)-one] the “Percent Control” value (FGR) was 88%, the “Percent Control” value [1] was 71% and the “Percent Control” value (ERK4) was 86%. The “Percent Control” value (TGFBR2) was 100%, the “Percent Control” value (ZAK) was 100% and the “Percent Control” value (MST1) was 90%. For the same compound, the “Percent Control” value (ABL2) was 94%, the “Percent Control” value (BRSK1) was 72% and the “Percent Control” value (PRKCQ) was 81%. For the same compound, the “Percent Control” value (PAK6) was 87%, the “Percent Control” value (EPHB6) was 14% and the “Percent Control” value (S6K1) was 96%. For the same compound, the “Percent Control” value (DCAMKL2) was 97%, the “Percent Control” value (WNK2) was 84% and the “Percent Control” value (IRAK4) was 68%. For the same compound, the “Percent Control” value (BRAF) was 84%, the “Percent Control” value (MRCKA) was 100% and the “Percent Control” value (PIK3CD) was 100%. For the same compound, the “Percent Control” value (PHKG1) was 79%, the “Percent Control” value [2] was 38% and the “Percent Control” value [3] was 59%. For the same compound, the “Percent Control” value (SGK) was 66%, the “Percent Control” value (FLT3(R834Q)) was 76% and the “Percent Control” value (BMX) was 86%. For the same compound, the “Percent Control” value (CDK4-cyclinD3) was 71%, the “Percent Control” value (EPHA2) was 100% and the “Percent Control” value (KIT) was 26%. The “Percent Control” value (PRKD2) was 82%, the “Percent Control” value (RIOK1) was 95% and the “Percent Control” value (GAK) was 56%. The “Percent Control” value (MYO3A) was 85%, the “Percent Control” value (DMPK2) was 100% and the “Percent Control” value [4] was 94%. The “phosphorylation of ERK1/2” value (ERK1/2) was “neither inhibited”, the “Percent Control” value (CLK1) was 69% and the “Percent Control” value (ERK5) was 100%. For the same compound, the “Percent Control” value (ADCK3) was 92%, the “Percent Control” value (CSNK1A1) was 80% and the “Percent Control” value (MINK) was 77%.
